Converted amounts (≈) assume the structure as drawn. “Also recorded” adds a separate entry of the source.
Columns and labels:
[1] = test system: P. acnes; test: MBC assays of SCFAs against P. acnes; type: cell-based, Propionibacterium acnes; conditions: for MBC: Cutibacterium acnes, P. acnes 10^8 CFU/ml, overnight, 99.9% killing level
Description: To determine the MBC values of SCFAs, P. acnes (10^8 CFU/ml) was incubated with SCFAs at various concentrations (2.5-100 mM in PBS) as indicated in each individual experiment in media on a 96-well microplate (100 μl per well) overnight. The control received only PBS. After incubation, the bacteria were diluted 1:10-1:10^6 with PBS. MBC was defined as a 99.9% killing level and determined by spotting the dilution (5 μl) on an agar plate supplemented with media for CFU counting. To determine the effect of pH on its growth, P. acnes in PBS was incubated with 5 mM succinic acid on a 96-well microplate (100 μl per well) overnight before spotting on an agar plate. As controls, P. acnes was incubated with PBS (pH 7.4) alone, PBS (pH 5.5; a pH value corresponding to the MBC of succinic acid in PBS), or buffered succinic acid (5 mM succinic acid, pH 7.4 buffered with ammonium hydroxide).
The minimal bactericidal concentration (MBC) assays were performed to determine if SCFAs exert the antimicrobial activities against P. acnes. Bacteria were incubated with acetic acid, butyric acid, lactic acid, and succinic acid various concentrations in media for 24 h. After incubation, the bacteria were diluted with PBS and spotted on an agar plate to count CFUs. […] To assess the acidity (pH 5.5) of 5 mM succinic acid in affecting growth of P. acnes, bacteria were incubated with PBS (pH 5.5) or ammonium hydroxide-buffered succinic acid (pH 7.4).

[2] = test system: P. acnes
[3] = test system: P. acnes; conditions: 5 mM, 5 min after treatment, vs PBS
Description: To eliminate unbound probe, bacteria were incubated with glucose (10 mM) for an additional 30 min, washed twice in 50 mM PBS with 10 mM MgCl2, pH 7.0, and then re-suspended in 1 mM PBS. […] Fluorescence intensities were measured immediately and every min for 5 min using an excitation wavelength of 490 nm and emission wavelength of 520 nm. A drop in relative fluorescence indicates the decrease in intracellular pH. Fluorescence of the bacteria-free filtrate (background fluorescence) was measured after the 5-min assay. The treated suspensions were centrifuged at 5,000 g for 5 min, the fluorescence of the bacteria-free supernatant was measured. Calibration curves were obtained by incubation of un-treated, cFSE-loaded bacteria in buffers of various pHs. The buffer containing glycine (50 mM), citric acid (50 mM), Na2HPO4.2H2O (50 mM), and KCl (50 mM) was adjusted to various pH values ranging from 4 to 10. Equilibration of the intracellular and extracellular pH was conducted by addition of 1 μM valinomycin and nigericin (Sigma, St. Louis, Mo.).
P. acnes was loaded with an internally conjugated fluorescent pH probe, carboxyfluorescein succinimidyl ester (cFSE).

[4] = test system: USA300; test: Growth of USA300 with glycerol; type: cell-based, Staphylococcus aureus; conditions: glycerol itself
[5] = test system: P. acnes; test: Growth curve of P. acnes in absence or presence of glycerol (OD600); type: cell-based, Propionibacterium acnes; conditions: rich medium with glycerol vs without, anaerobic, 30° C.
Description: P. acnes was incubated in rich medium in the absence (□) and presence (▪) of glycerol on a 96-well microplate under anaerobic conditions at 30° C. The OD600 was read at the indicated time points. Data are the mean±SD of three separate experiments.

[6] = test system: USA300; test: Interference of P. acnes fermentation with the colonization of USA300 in skin wounds in vivo; set-up: species or system ICR mice; conditions: glycerol 0.2 mg alone, compared to PBS
Description: A 5 mm wound made on the dorsal skin of ICR mice were described above. P. acnes bacteria (10^7 CFU in 5 μl PBS), P. acnes bacteria and glycerol (0.2 mg), PBS (5 μl) alone or glycerol alone were applied onto the skin wounds for 3 days. USA300 (10^7 CFU in 5 μl PBS) was administered onto the same wounds. The wounds were excised, weighted and homogenized 3 days after USA300 administration. Bacterial CFUs in the wounds were enumerated by plating serial dilutions (1:10^1-1:10^6) of the homogenate on a TSB agar plate. The plate was incubated for 24 h at 37° C. to count colonies of USA300.

[7] = test system: USA300; test: MBC assay against USA300; type: cell-based, Staphylococcus aureus
Description: To determine the MBC of propionic acid, USA300 (10^6 CFU/ml) were incubated with propionic acid at various concentrations (1.25-100 mM in PBS) as indicated in each individual experiment in media on a 96-well microplate (100 μl per well) overnight. The control received only PBS. After incubation, the bacteria were diluted 1:10-1:10^6 with PBS. […] To determine the pH effect on the bacterial growth, USA300 in TSB was incubated with 2.5 mM propionic acid on a 96-well microplate (100 μl per well) overnight before spotting on an agar plate.
To determine the minimal bactericidal concentration (MBC) and minimal fungicidal concentration (MFC) of propionic acid, microorganisms (10^6 colony forming units (cfu)/ml) were incubated overnight in media with propionic acid (1.25-2,000 mM) in a 96-well microplate (100 μl per well). The control only received PBS. After incubation, the microorganisms were diluted 1:10-1:10^6 into PBS. […]

[8] = topical application, 100 mM once per day, vs PBS

SMILES: O=C(O)CCC(=O)O [succinic acid]
- antimicrobial activity against P. acnes after buffering ([1]; 5 mM succinic acid buffered with ammonium hydroxide, pH 7.4): persisted
- MBC [1]: 5 mM (≈ 590 µg/mL)
- concentration that completely killed P. acnes ([1]; MBC assay): ≥ 210 mM
- concentration that effectively suppressed the growth of P. acnes ([1]; MBC assay): ≥ 25 mM
- P. acnes-induced inflammation ([2]; application of succinic acid (FIG. 5)): significantly neutralizes
- P. acnes numbers in ears ([2]; intralesional injection, 5 mM): 2.9×10^4±1.3×10^4 CFU
- MIP-2 production less than in PBS-injected ear ([2]; intralesional injection, 5 mM, two days after injection, ELISA): approximately 50%
- P. acnes-induced redness ([2]; intralesional injection, 5 mM, vs PBS): reduced
- MIP-2 production [2, 8]: considerably lowered
- P. acnes colonization [2, 8]: considerably lowered
- intracellular pH of P. acnes [3]: significantly lowered

SMILES: CC(=O)O [acetic acid]
- MBC [1]: 7.5 mM (≈ 450 µg/mL)

SMILES: CCCC(=O)O [butyric acid]
- MBC [1]: 10 mM (≈ 881 µg/mL)

SMILES: OCC(O)CO [glycerol]
- growth of USA300 [4]: did not influence
- growth of P. acnes [5]: did not influence; also recorded: did not change significantly
- USA300 colonization [6]: did not significantly alter
- size of USA300-infected lesions [6]: did not significantly alter

SMILES: CC(O)C(=O)O (stereo not drawn) [lactic acid]
- MBC [1]: 10 mM (≈ 901 µg/mL)

SMILES: CCC(=O)OCCOCCOC(=O)CC [PA-DEG-PA, propionic acid 2-(2-propionyloxyethoxy)ethyl ester]
- efficacy to suppress the growth of USA300 in vitro compared with propionic acid ([7]; 4% dimethyl sufoxide): equivalent in efficacy
- concentration for complete growth inhibition of USA300 ([7]; dissolved in 4% dimethyl sufoxide, overnight): 100 mM
- MBC (>1 log10 inhibition) against USA300 ([7]; dissolved in 4% dimethyl sufoxide, overnight, 0-100 mM): ≥ 25 mM

— US11590092B2, “Skin probiotic” (The Regents of the University of California, priority 2014, dated 2023)
